Test results published in PMC11859928, “Design, Synthesis, and Antiproliferative Activity of Novel Indole/1,2,4-Triazole Hybrids as Tubulin Polymerization Inhibitors” (Pharmaceuticals, 2025).
Read-outs that look alike come from different tables or passages of the source.

What was measured:
NCI-H522 = assay: NCI five-dose assay; format: cell-based, human; conditions: NCI-H522, Non-small cell lung cancer
HL-60(TB) = assay: NCI five-dose assay; format: cell-based, human; conditions: Leukemia
CNS cancer subpanel = assay: NCI five-dose assay, subpanel mean; format: cell-based, human
HCT-116 = assay: NCI five-dose assay; format: cell-based, human; conditions: HCT-116, Colon cancer
NCI-H460 = assay: NCI five-dose assay; format: cell-based, human; conditions: NCI-H460, Non-small cell lung cancer
SK-OV-3 = assay: NCI five-dose assay; format: cell-based, human; conditions: SK-OV-3, Ovarian cancer
LOX IMVI = assay: NCI five-dose assay; format: cell-based, human; conditions: Melanoma
T-47D = assay: NCI five-dose assay; format: cell-based, human; conditions: Breast cancer
PC-3 = assay: NCI five-dose assay; format: cell-based, human; conditions: PC-3, Prostate cancer
tubulin = biological target: T1, tubulin (Sus scrofa, UniProt P02550+P02554); assay: Tubulin polymerization inhibitory assay; format: biochemical
T1 construct: purchased Cytoskeleton Inc., Denver, CO, USA
T1 sequence (P02554 whole entry): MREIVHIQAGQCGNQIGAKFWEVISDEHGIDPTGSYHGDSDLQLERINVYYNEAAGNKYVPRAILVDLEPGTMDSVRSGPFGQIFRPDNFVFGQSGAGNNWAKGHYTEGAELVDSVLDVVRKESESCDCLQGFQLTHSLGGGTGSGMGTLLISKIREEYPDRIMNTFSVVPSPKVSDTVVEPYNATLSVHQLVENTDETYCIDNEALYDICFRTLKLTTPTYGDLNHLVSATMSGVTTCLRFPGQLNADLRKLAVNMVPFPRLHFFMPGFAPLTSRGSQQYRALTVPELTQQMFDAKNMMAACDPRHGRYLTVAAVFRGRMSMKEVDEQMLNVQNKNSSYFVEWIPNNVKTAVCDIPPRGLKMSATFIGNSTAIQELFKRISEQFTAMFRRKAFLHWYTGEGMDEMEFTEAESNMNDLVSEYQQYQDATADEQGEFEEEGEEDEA
T1 sequence (P02550 whole entry): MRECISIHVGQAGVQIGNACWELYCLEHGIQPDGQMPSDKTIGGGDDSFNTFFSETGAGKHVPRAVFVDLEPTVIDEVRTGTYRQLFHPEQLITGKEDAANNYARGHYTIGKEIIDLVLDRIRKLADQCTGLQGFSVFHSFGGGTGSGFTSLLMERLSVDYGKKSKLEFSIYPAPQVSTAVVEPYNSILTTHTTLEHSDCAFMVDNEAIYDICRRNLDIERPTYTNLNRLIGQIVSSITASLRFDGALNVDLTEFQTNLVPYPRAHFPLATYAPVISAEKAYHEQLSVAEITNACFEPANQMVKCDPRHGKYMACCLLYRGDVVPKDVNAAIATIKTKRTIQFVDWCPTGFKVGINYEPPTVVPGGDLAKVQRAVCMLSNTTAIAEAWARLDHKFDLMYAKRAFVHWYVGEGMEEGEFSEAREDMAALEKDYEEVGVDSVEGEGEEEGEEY
Excerpt: The substances’ effects on tubulin polymerization were examined using the Tubulin Polymerization Assay Kit (Cytoskeleton Inc., Denver, CO, USA) according to the supplier’s instructions, with details described in Appendix A..
The activity of compounds on tubulin polymerization was investigated using the Tubulin Polymerization Assay Kit (Cytoskeleton Inc., Denver, CO, USA), which works via fluorescent reporter enhancement. […] Docetaxel and vincristine (Apoteket AB, Stockholm, Sweden) served as positive stabilizing and destabilizing controls. Both were used at a 3 µM concentration in PBS.

UACC-257 = assay: NCI five-dose assay; format: cell-based, human; conditions: UACC-257, Melanoma
UACC-62 = assay: NCI five-dose assay; format: cell-based, human; conditions: UACC-62, Melanoma
BT-549 = assay: NCI five-dose assay; format: cell-based, human; conditions: BT-549, Breast cancer
HT29 = assay: NCI five-dose assay; format: cell-based, human; conditions: HT29, Colon cancer
MCF7 = assay: NCI five-dose assay; format: cell-based, human; conditions: MCF7, Breast cancer
NCI/ADR-RES = assay: NCI five-dose assay; format: cell-based, human; conditions: Ovarian cancer
UO-31 = assay: NCI five-dose assay; format: cell-based, human; conditions: UO-31, Renal cancer
SN12C = assay: NCI five-dose assay; format: cell-based, human; conditions: Renal cancer
MDA/MB-231-ATCC = assay: NCI five-dose assay; format: cell-based, human; conditions: Breast cancer
[1] = tested on: Non-small cell lung cancer subpanel; assay: NCI five-dose assay, subpanel mean; format: cell-based, human
HCT-15 = assay: NCI five-dose assay; format: cell-based, human; conditions: HCT-15, Colon cancer
SNB-19 = assay: NCI five-dose assay; format: cell-based, human; conditions: SNB-19, CNS cancer
786-0 = assay: NCI five-dose assay; format: cell-based, human; conditions: 786-0, Renal cancer
HCC-2998 = assay: NCI five-dose assay; format: cell-based, human; conditions: HCC-2998, Colon cancer
MDA-MB-468 = assay: NCI five-dose assay; format: cell-based, human; conditions: Homo sapiens, MDA-MB-468, Breast cancer
[2] = Homo sapiens, 48 h, read-out: LC50 (the source's name)
[3] = Homo sapiens, read-out: GI50 Conc. per Cell Lines

SMILES: Cc1ccc(C(=O)CSc2nnc(-c3c[nH]c4ccccc34)n2-c2ccccc2)cc1 [Compound 6h, 2-((5-(1H-Indol-3-yl)-4-phenyl-4H-1,2,4-triazol-3-yl)thio)-1-(p-tolyl)ethenone]
- CC50 (NCI-H522; [2]): > 100 µM
- GI50 (NCI-H522; [3]): 16.3 µM
- TGI Conc. per Cell Lines (NCI-H522): 43.70 µM
- CC50 (HL-60(TB); [2]): > 100 µM
- GI50 (HL-60(TB); [3]): 30.8 µM
- TGI Conc. per Cell Lines (HL-60(TB)): ˃100 µM
- GI50 Selectivity Ratio (MID a/MID b) (CNS cancer subpanel; CNS cancer subpanel): 1.11
- GI50 (CNS cancer subpanel; Homo sapiens, average sensitivity of all cell lines of the CNS cancer subpanel, read-out: GI50 Subpanel MID b): 17.4 µM
- TGI Conc. per Cell Lines (HCT-116): 60.40 µM
- CC50 (HCT-116; [2]): > 100 µM
- GI50 (HCT-116; [3]): 18.7 µM
- CC50 (NCI-H460; [2]): 63.5 µM
- GI50 (NCI-H460; [3]): 15.2 µM
- TGI Conc. per Cell Lines (NCI-H460): 31.00 µM
- CC50 (SK-OV-3; [2]): 64.4 µM
- GI50 (SK-OV-3; [3]): 17 µM
- TGI Conc. per Cell Lines (SK-OV-3): 33.10 µM
- GI50 (LOX IMVI; [3]): 14.3 µM
- TGI Conc. per Cell Lines (LOX IMVI): 27.30 µM
- TGI Conc. per Cell Lines (T-47D): ˃100 µM
- LC50 (concentration killing 50% of cells) (T-47D; Homo sapiens, T47D, 48 h): > 100 µM
- GI50 (T-47D; Homo sapiens, T47D, read-out: GI50 Conc. per Cell Lines): 24.9 µM
- CC50 (PC-3; [2]): > 100 µM
- GI50 (PC-3; [3]): 12.4 µM
- TGI Conc. per Cell Lines (PC-3): 37.80 µM
- tubulin inhibitory activity, times lower than compound 7j (tubulin): 1.5 times
- %inhibition (tubulin; conc 0.01 (unit not given; IC50 from this curve in µg/ml)): 5.97%
- %inhibition (tubulin; conc 0.1 (unit not given; IC50 from this curve in µg/ml)): 16.8%
- %inhibition (tubulin; conc 1 (unit not given; IC50 from this curve in µg/ml)): 30%
- %inhibition (tubulin; conc 10 (unit not given; IC50 from this curve in µg/ml)): 58%
- %inhibition (tubulin; conc 100 (unit not given; IC50 from this curve in µg/ml)): 81.2%
- IC50 (tubulin; read-out: Tub. IC50±SD (converted)): 9.51 µM
- IC50 (tubulin; read-out: Tubulin Inhibitory Effect, IC50): 9.5 ± 0.3 µM
- CC50 (UACC-257; [2]): > 100 µM
- GI50 (UACC-257; [3]): 28.9 µM
- TGI Conc. per Cell Lines (UACC-257): >100 µM
- CC50 (UACC-62; [2]): 95.1 µM
- GI50 (UACC-62; [3]): 15.3 µM
- TGI Conc. per Cell Lines (UACC-62): 38.10 µM
- TGI Conc. per Cell Lines (BT-549): 46.70 µM
- CC50 (BT-549; [2]): 87.2 µM
- GI50 (BT-549; [3]): 25.1 µM
- TGI Conc. per Cell Lines (HT29): 50.50 µM
- CC50 (HT29; Homo sapiens, HT-29, 48 h, read-out: LC50 (the source's name)): > 100 µM
- GI50 (HT29; Homo sapiens, HT-29, read-out: GI50 Conc. per Cell Lines): 15.6 µM
- LC50 (MCF7; Homo sapiens, 48 h): 98.1 µM
- GI50 (MCF7; [3]): 15.7 µM
- TGI Conc. per Cell Lines (MCF7): 39.20 µM
- LC50 (NCI/ADR-RES; Homo sapiens, 48 h): 76.8 µM
- GI50 (NCI/ADR-RES; [3]): 11.9 µM
- TGI Conc. per Cell Lines (NCI/ADR-RES): 30.20 µM
- CC50 (UO-31; [2]): 69.5 µM
- GI50 (UO-31; [3]): 14.2 µM
- TGI Conc. per Cell Lines (UO-31): 31.40 µM
- CC50 (SN12C; [2]): > 100 µM
- GI50 (SN12C; [3]): 19.4 µM
- TGI Conc. per Cell Lines (SN12C): 48.90 µM
- TGI Conc. per Cell Lines (MDA/MB-231-ATCC): 32.60 µM
- LC50 (MDA/MB-231-ATCC; Homo sapiens, 48 h): 69 µM
- GI50 (MDA/MB-231-ATCC; [3]): 15.4 µM
- GI50 ([1]; Homo sapiens, average sensitivity of all cell lines of the Non-small cell lung cancer subpanel, read-out: GI50 Subpanel MID b): 14.9 µM
- GI50 Selectivity Ratio (MID a/MID b) ([1]; Non-small cell lung cancer subpanel): 1.29
- TGI Conc. per Cell Lines (HCT-15): >100 µM
- CC50 (HCT-15; [2]): > 100 µM
- GI50 (HCT-15; [3]): 22.6 µM
- CC50 (SNB-19; [2]): 75.3 µM
- GI50 (SNB-19; [3]): 15.8 µM
- TGI Conc. per Cell Lines (SNB-19): 34.50 µM
- TGI Conc. per Cell Lines (786-0): 31.20 µM
- LC50 (50% lethal concentration) (786-0; Homo sapiens, 48 h): 66.4 µM
- GI50 (786-0; [3]): 14.7 µM
- TGI Conc. per Cell Lines (HCC-2998): 51.70 µM
- CC50 (HCC-2998; [2]): > 100 µM
- GI50 (HCC-2998; [3]): 20 µM
- LC50 (MDA-MB-468; 48 h): 81.3 µM
- GI50 (MDA-MB-468; read-out: GI50 Conc. per Cell Lines): 12.8 µM
